Data: EP0649843B1, “THIAZOLINE DERIVATIVE” (TAISHO PHARMACEUTICAL CO. LTD, priority 1992, dated 1994)
Counter-ions that a name gives are not always drawn.

What was measured:
[1] = target: T1, fibrinogen receptor (GpIIb/IIIa) (Homo sapiens, UniProt P05106+P08514); test: Human blood platelet fibrinogen binding test; conditions: inhibition of binding of 125I labelled human fibrinogen to human blood platelet suspension; ADP final concentration 10 µM
T1 construct: gel filtration using Sepharose 2B column to give a blood platelet suspension; endogenous in cells; host or cells: human blood platelets (gel-filtered, from platelet rich plasma of a healthy donor)
Protocol: The precipitate was suspended in a Tyrode's solution (20% fetal bovine serum, 2 mM Mg^2+), followed by gel filtration using Sepharose 2B column to give a blood platelet suspension (1 x 10^9/ml) apart from fibrinogen. […] The binding inhibition rate of the test drug was then calculated.

[2] = tested on: Blood platelet aggregation; test: Inhibition test of human in vitro platelet aggregation (ADP-induced); format: cell-based
Protocol: The blood platelet counts of PRP were adjusted to (50 to 60) x 10^4/µl by diluting with PPP.
Blood platelet aggregation was determined according to the method of Born G.V.R., [Nature, vol. […] That is, a solution of the compound of Formula (I) as a test drug in dimethyl sulfoxide was adjust to the desired concentration with a physiological saline solution. 25 µl of the solution was added to 250 µl of PRP and incubated at 37°C for 3 minutes, and 25 µl of ADP (final concentration : 7 µM) was added thereto.

T1 sequence (P08514 32-887 limits assumed): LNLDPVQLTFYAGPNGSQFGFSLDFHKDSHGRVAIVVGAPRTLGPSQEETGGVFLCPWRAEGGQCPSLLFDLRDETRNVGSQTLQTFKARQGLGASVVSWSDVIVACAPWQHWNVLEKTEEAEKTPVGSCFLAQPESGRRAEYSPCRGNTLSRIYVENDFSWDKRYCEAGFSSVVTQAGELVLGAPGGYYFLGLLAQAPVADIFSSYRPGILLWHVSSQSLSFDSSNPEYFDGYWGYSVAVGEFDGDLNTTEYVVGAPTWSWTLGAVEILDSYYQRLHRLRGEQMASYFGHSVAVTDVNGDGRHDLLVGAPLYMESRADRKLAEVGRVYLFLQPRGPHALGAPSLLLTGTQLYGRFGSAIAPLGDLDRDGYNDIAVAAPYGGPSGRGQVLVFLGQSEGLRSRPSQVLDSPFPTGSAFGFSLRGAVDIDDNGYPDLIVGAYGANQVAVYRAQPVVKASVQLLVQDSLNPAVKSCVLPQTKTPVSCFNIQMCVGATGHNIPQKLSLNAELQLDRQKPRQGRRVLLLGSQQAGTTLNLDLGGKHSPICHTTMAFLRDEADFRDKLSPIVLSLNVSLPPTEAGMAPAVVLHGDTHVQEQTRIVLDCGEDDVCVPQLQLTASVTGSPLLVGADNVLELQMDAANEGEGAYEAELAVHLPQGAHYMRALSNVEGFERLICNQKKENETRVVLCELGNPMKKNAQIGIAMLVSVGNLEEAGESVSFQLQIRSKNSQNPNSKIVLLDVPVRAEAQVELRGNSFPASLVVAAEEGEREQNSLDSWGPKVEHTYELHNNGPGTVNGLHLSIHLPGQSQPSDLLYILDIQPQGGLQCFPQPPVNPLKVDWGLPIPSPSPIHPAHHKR
T1 sequence (P08514 891-1039 partner limits assumed): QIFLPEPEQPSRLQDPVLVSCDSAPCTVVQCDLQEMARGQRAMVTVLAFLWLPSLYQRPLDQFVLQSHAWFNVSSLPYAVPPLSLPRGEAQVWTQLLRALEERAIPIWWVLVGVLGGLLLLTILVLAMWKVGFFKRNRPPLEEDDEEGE
T1 sequence (P05106 27-788): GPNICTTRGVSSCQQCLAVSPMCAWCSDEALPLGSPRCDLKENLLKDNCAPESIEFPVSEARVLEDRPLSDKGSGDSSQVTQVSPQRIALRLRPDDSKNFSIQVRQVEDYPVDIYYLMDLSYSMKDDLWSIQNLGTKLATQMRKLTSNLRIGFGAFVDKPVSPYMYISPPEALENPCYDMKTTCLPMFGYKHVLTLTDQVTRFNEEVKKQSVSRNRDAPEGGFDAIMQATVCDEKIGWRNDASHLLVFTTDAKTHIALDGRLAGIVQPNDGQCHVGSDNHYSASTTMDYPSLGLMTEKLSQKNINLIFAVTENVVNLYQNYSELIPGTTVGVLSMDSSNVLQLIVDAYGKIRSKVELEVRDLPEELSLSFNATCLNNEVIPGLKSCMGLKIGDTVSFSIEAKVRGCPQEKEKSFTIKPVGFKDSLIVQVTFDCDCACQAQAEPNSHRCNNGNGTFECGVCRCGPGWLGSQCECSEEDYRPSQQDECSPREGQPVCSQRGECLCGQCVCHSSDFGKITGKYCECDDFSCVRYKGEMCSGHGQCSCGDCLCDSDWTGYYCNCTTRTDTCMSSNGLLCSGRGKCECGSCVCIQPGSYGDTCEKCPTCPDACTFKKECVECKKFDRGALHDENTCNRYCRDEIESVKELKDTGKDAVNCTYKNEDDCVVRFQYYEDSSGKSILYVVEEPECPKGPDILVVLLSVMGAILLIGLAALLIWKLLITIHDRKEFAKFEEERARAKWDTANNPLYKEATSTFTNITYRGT

| Compound | IC50 [1] [nM] | IC50 ([2]; Homo sapiens, Platelet, 0.05 h) [nM] | IC50 ([2]; concentration causing 50% inhibition of the maximum aggregation, human PRP, ADP final concentration 7 µM, incubated at 37°C for 3 minutes) [nM] |
| --- | --- | --- | --- |
| Cc1c(C(=O)NCCC(=O)O)sc(=NC(=O)c2ccc(C(=N)NCc3ccccc3)cc2)n1C [Compound 29] | 7.9 | 14 | – |
| Cc1c(C(=O)NCCC(=O)O)sc(=NC(=O)c2ccc(C(=N)N)cc2)n1C(C)C [Compound 27] | – | 15 | – |
| Cc1c(C(=O)NCCC(=O)O)sc(=NC(=O)c2ccc(C(=N)N(C)C)cc2)n1C [Compound 37, N-(2-carboxyethyl)-2-[4-(N,N-dimethylamidino)benzoylimino]-3,4-dimethyl-3H-thiazoline-5-carboxamide hydrobromide] | 1.3 | – | – |
| 3-[3-(4-amidinobenzoyl)benzamide]propionic acid [Control, reference compound] | 84.4 | – | 105 |
| COC(=O)CCNC(=O)c1sc(=NC(=O)c2ccc(C#N)cc2)n(C(C)C)c1C [Compound 23] | 6.3 | – | – |
| Cc1c(C(=O)NCCC(=O)O)sc(=NC(=O)c2ccc(C(=N)N)cc2)n1Cc1ccccc1 [Compound 17] | – | 19 | – |
| Cc1c(C(=O)NCCC(=O)O)sc(=NC(=O)c2ccc(C(=N)N(C)Cc3ccccc3)cc2)n1C [Compound 35, N-(2-carboxyethyl)-2-[4-(N-methyl-N-benzylamidino)benzoylimino]-3,4-dimethyl-3H-thiazoline-5-carboxamide hydrobromide] | 1 | – | – |
| CCCCn1c(C)c(C(=O)NCCC(=O)O)sc1=NC(=O)c1ccc(C(=N)N)cc1 [Compound 22] | – | 18 | – |
| CNC(=N)c1ccc(C(=O)N=c2sc(C(=O)NCCC(=O)O)c(C)n2C)cc1 [Compound 7, N-(2-carboxyethyl)-2-[4-(N-methylamidino)benzoylimino]-3,4-dimethyl-3H-thiazoline-5-carboxamide hydrobromide] | 2.7 | – | – |
| Cc1c(C(=O)NCCC(=O)O)sc(=NC(=O)c2ccc(C(=N)N)cc2)n1C [Compound 5, N-(2-carboxyethyl)-2-(4-amidinobenzoylimino)-3,4-dimetylthiazoline-5-carboxamide hydrobromide] | 5.1 | 17 | – |
| Cc1c(C(=O)NCCC(=O)O)sc(=NC(=O)c2ccc(C(=N)Nc3ccccc3)cc2)n1C [Compound 31, N-(2-carboxyethyl)-2-[4-(N-phenylamidino)benzoylimino]-3,4-dimethyl-3H-thiazoline-5-carboxamide hydrobromide] | – | 20 | – |
